Laboratory results reported in the supplement of paper PMC11368000.

Experiments:
Settings in all cases: exposure time: 90 min
1392 [1] = donor line of iPSC-derived cardiomyocytes; assay: POD (EC95) for loss of peak frequency (asystole) vs vehicle; higher = less potent (higher point of departure)
Outline: (§1)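 Cardiomyocytes from human iPSCs of 16 donors spent 14 days in gelatin-coated 384-well plates before 2 h of fluorescent Ca2+ dye loading. They were then held for 90 min at 37 °C at final concentrations of 0.1, 1, 10 and 100 µM containing 0.5% DMSO, and Ca2+ flux was read on a FLIPR Tetra (8 frames/s, 100 s) before and after. Donor-level points of departure were taken from hierarchical Bayesian Hill fits to vehicle-normalised beat frequency, decay-to-rise ratio or peak frequency. For these, a 5% change was the threshold, or a 95% loss for peak frequency.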

1434 [2] = donor line of iPSC-derived cardiomyocytes; assay: as above
Outline: as §1

1516 = donor line of iPSC-derived cardiomyocytes; assay: as above
Outline: as §1

1531 = donor line of iPSC-derived cardiomyocytes; assay: as above
Outline: as §1

1535 [3] = donor line of iPSC-derived cardiomyocytes; assay: as above
Outline: as §1

1565 [4] = donor line of iPSC-derived cardiomyocytes; assay: as above
Outline: as §1

20032 [5] = donor line of iPSC-derived cardiomyocytes; assay: as above
Outline: as §1

30145 [6] = donor line of iPSC-derived cardiomyocytes; assay: as above
Outline: as §1

1083 = donor line of iPSC-derived cardiomyocytes; assay: POD (EC05) for increase in Ca2+ transient decay-to-rise ratio (QT prolongation) vs vehicle; higher = less potent (higher point of departure)
Procedure: (§2)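 Human iPSC-derived cardiomyocytes from 16 donors were exposed for 90 min at 37 °C to each PFAS at 0.1, 1, 10 and 100 µM in 0.5% DMSO, 384-well plates. Kinetic Ca2+ flux (FLIPR) and Hoechst nuclei counts were normalised to vehicle wells and fitted with a hierarchical Bayesian Hill model to give donor-specific PODs: EC05 for beat-rate increase or decrease and for decay-to-rise ratio increase (QT proxy), EC95 for peak-frequency loss (asystole), EC10 for total cell number loss. 0.03 µM is the lower bound.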

1118 = donor line of iPSC-derived cardiomyocytes; assay: as above
Procedure: as §2

11235 = donor line of iPSC-derived cardiomyocytes; assay: as above
Procedure: as §2

1368 = donor line of iPSC-derived cardiomyocytes; assay: as above
Procedure: as §2

1392 [7] = assay: as above
Procedure: as §2

1434 [8] = assay: as above
Procedure: as §2

1535 [9] = assay: as above
Procedure: as §2

1565 [10] = assay: as above
Procedure: as §2

20032 [11] = assay: as above
Procedure: as §2

20084 = donor line of iPSC-derived cardiomyocytes; assay: as above
Procedure: as §2

30145 [12] = assay: as above
Procedure: as §2

30171 = donor line of iPSC-derived cardiomyocytes; assay: as above
Procedure: as §2

SMILES	POD vs vehicle 1392 [1]	POD vs vehicle 1434 [2]	POD vs vehicle 1516	POD vs vehicle 1531	POD vs vehicle 1535 [3]	POD vs vehicle 1565 [4]	POD vs vehicle 20032 [5]	POD vs vehicle 30145 [6]	POD vs vehicle 1083	POD vs vehicle 1118	POD vs vehicle 11235	POD vs vehicle 1368	POD vs vehicle 1392 [7]	POD vs vehicle 1434 [8]	POD vs vehicle 1535 [9]	POD vs vehicle 1565 [10]	POD vs vehicle 20032 [11]	POD vs vehicle 20084	POD vs vehicle 30145 [12]	POD vs vehicle 30171
COC(=O)C(F)(F)C(F)(F)OC(F)(C(F)(F)F)C(F)(F)OC(F)=C(F)F (stereo unspecified) [Methyl_perfluoro(3-(1-ethenyloxypropan-2-yloxy)propanoate)]	> 100 µM	> 100 µM	> 100 µM	> 100 µM	> 100 µM	> 100 µM	> 100 µM	> 100 µM	> 100 µM	> 100 µM	> 100 µM	> 100 µM	> 100 µM	> 100 µM	> 100 µM	> 100 µM	> 100 µM	37.5 µM	> 100 µM	> 100 µM
O=C(O)C(F)(F)OC(F)(F)C(F)(F)OC(F)(F)F [Perfluoro-3,6-dioxaheptanoic_acid]	> 100 µM	> 100 µM	> 100 µM	> 100 µM	> 100 µM	> 100 µM	> 100 µM	> 100 µM	> 100 µM	> 100 µM	> 100 µM	> 100 µM	> 100 µM	> 100 µM	> 100 µM	> 100 µM	> 100 µM	> 100 µM	> 100 µM	> 100 µM
OCC(F)(F)OC(F)(F)C(F)(F)OC(F)(F)C(F)(F)OC(F)(F)F [Fluorinated_triethylene_glycol_monomethyl_ether]	> 100 µM	> 100 µM	> 100 µM	> 100 µM	> 100 µM	> 100 µM	> 100 µM	> 100 µM	> 100 µM	> 100 µM	> 100 µM	> 100 µM	> 100 µM	> 100 µM	> 100 µM	> 100 µM	> 100 µM	> 100 µM	> 100 µM	> 100 µM
OCC(O)CC(F)(F)C(F)(F)C(F)(F)C(F)(F)C(F)(F)C(F)(F)C(F)(F)C(F)(F)F (stereo unspecified) [1-(Perfluorofluorooctyl)propane-2,3-diol]	> 100 µM	> 100 µM	> 100 µM	> 100 µM	> 100 µM	> 100 µM	> 100 µM	> 100 µM	> 100 µM	> 100 µM	> 100 µM	> 100 µM	> 100 µM	> 100 µM	> 100 µM	> 100 µM	> 100 µM	> 100 µM	> 100 µM	> 100 µM
O=C(O)C(F)(F)OC(F)(F)C(F)(F)OC(F)(F)C(=O)O [Perfluoro-3,6-dioxaoctane-1,8-dioic_acid]	> 100 µM	> 100 µM	> 100 µM	> 100 µM	> 100 µM	> 100 µM	> 100 µM	> 100 µM	> 100 µM	> 100 µM	> 100 µM	> 100 µM	> 100 µM	> 100 µM	> 100 µM	> 100 µM	> 100 µM	> 100 µM	> 100 µM	> 100 µM
OCCC(F)(F)C(F)(F)C(F)(F)C(F)(F)F [4:2 Fluorotelomer alcohol]	> 100 µM	> 100 µM	> 100 µM	> 100 µM	> 100 µM	> 100 µM	> 100 µM	> 100 µM	> 100 µM	> 100 µM	> 100 µM	> 100 µM	> 100 µM	> 100 µM	> 100 µM	> 100 µM	> 100 µM	> 100 µM	> 100 µM	> 100 µM
CN(CCO)S(=O)(=O)C(F)(F)C(F)(F)C(F)(F)C(F)(F)C(F)(F)C(F)(F)C(F)(F)C(F)(F)F [N-Methyl-N-(2-hydroxyethyl)perfluorooctanesulfonamide]	> 100 µM	> 100 µM	> 100 µM	> 100 µM	> 100 µM	> 100 µM	> 100 µM	> 100 µM	> 100 µM	> 100 µM	> 100 µM	> 100 µM	> 100 µM	> 100 µM	> 100 µM	> 100 µM	> 100 µM	> 100 µM	> 100 µM	> 100 µM
OCC(F)(F)C(F)(F)C(F)(F)F [Heptafluorobutanol]	> 100 µM	> 100 µM	> 100 µM	> 100 µM	> 100 µM	> 100 µM	> 100 µM	> 100 µM	> 100 µM	> 100 µM	> 100 µM	> 100 µM	> 100 µM	> 100 µM	> 100 µM	> 100 µM	> 100 µM	> 100 µM	> 100 µM	> 100 µM
O=S(=O)(O)C(F)(F)C(F)(F)C(F)(F)C(F)(F)C(F)(F)C(F)(F)C(F)(F)C(F)(F)F [Perfluorooctanesulfonic_acid]	> 100 µM	> 100 µM	> 100 µM	> 100 µM	> 100 µM	> 100 µM	> 100 µM	> 100 µM	> 100 µM	> 100 µM	> 100 µM	> 100 µM	> 100 µM	> 100 µM	> 100 µM	> 100 µM	> 100 µM	> 100 µM	> 100 µM	> 100 µM
OCC(F)(F)C(F)(F)C(F)(F)C(F)F [1H,1H,5H-Perfluoropentanol]	> 100 µM	> 100 µM	> 100 µM	> 100 µM	> 100 µM	> 100 µM	> 100 µM	> 100 µM	> 100 µM	> 100 µM	> 100 µM	> 100 µM	> 100 µM	> 100 µM	> 100 µM	> 100 µM	> 100 µM	5.77 µM	> 100 µM	> 100 µM
O=C(O)C(F)(F)C(F)(F)C(F)(F)C(F)(F)C(F)(F)F [Perfluorohexanoic_acid]	> 100 µM	> 100 µM	> 100 µM	> 100 µM	> 100 µM	> 100 µM	> 100 µM	> 100 µM	> 100 µM	> 100 µM	> 100 µM	> 100 µM	> 100 µM	> 100 µM	> 100 µM	> 100 µM	> 100 µM	> 100 µM	> 100 µM	> 100 µM
O=C(O)C(F)(F)C(F)(F)C(F)(F)OC(F)(F)F [Perfluoro(4-methoxybutanoic)_acid]	> 100 µM	> 100 µM	> 100 µM	> 100 µM	> 100 µM	> 100 µM	> 100 µM	> 100 µM	> 100 µM	> 100 µM	> 100 µM	> 100 µM	> 100 µM	> 100 µM	> 100 µM	> 100 µM	> 100 µM	> 100 µM	> 100 µM	> 100 µM
O=S(=O)(OCC(F)(F)F)C(F)(F)C(F)(F)C(F)(F)C(F)(F)F [2,2,2-Trifluoroethyl_perfluorobutanesulfonate]	> 100 µM	> 100 µM	> 100 µM	> 100 µM	> 100 µM	> 100 µM	> 100 µM	> 100 µM	> 100 µM	> 100 µM	> 100 µM	> 100 µM	> 100 µM	> 100 µM	> 100 µM	> 100 µM	> 100 µM	> 100 µM	> 100 µM	> 100 µM
N=C(N)C(F)(F)C(F)(F)C(F)(F)C(F)(F)C(F)(F)C(F)(F)C(F)(F)F [Perfluorooctanamidine]	> 100 µM	> 100 µM	> 100 µM	> 100 µM	> 100 µM	> 100 µM	> 100 µM	> 100 µM	> 100 µM	> 100 µM	> 100 µM	> 100 µM	> 100 µM	> 100 µM	> 100 µM	> 100 µM		0.145 µM	> 100 µM	> 100 µM
O=P(O)(O)CCC(F)(F)C(F)(F)C(F)(F)C(F)(F)C(F)(F)C(F)(F)C(F)(F)C(F)(F)F [((Perfluorooctyl)ethyl)phosphonic_acid]	> 100 µM	> 100 µM	> 100 µM	> 100 µM	> 100 µM	> 100 µM	> 100 µM	> 100 µM	> 100 µM	> 100 µM	> 100 µM	> 100 µM	> 100 µM	> 100 µM	> 100 µM	> 100 µM	> 100 µM	> 100 µM	> 100 µM	> 100 µM
O=S(=O)(O)CCC(F)(F)C(F)(F)C(F)(F)C(F)(F)C(F)(F)C(F)(F)C(F)(F)C(F)(F)F [8:2 Fluorotelomer sulfonic acid]	> 100 µM	> 100 µM	> 100 µM	16.5 µM	> 100 µM	> 100 µM	> 100 µM	89.3 µM	> 100 µM	> 100 µM	> 100 µM	> 100 µM	> 100 µM	17.2 µM	> 100 µM	> 100 µM	> 100 µM	21.9 µM	> 100 µM	20.1 µM
O=C(O)C(F)(F)C(F)(F)C(F)(F)C(F)(F)C(F)(F)C(F)(F)C(F)(F)F [Perfluorooctanoic_acid]	> 100 µM	> 100 µM	> 100 µM	> 100 µM	> 100 µM	> 100 µM	> 100 µM	> 100 µM	> 100 µM	> 100 µM	> 100 µM	> 100 µM	> 100 µM	> 100 µM	> 100 µM	> 100 µM	> 100 µM	> 100 µM	> 100 µM	> 100 µM
NC(=O)C(F)(F)C(F)(F)C(F)(F)C(F)(F)C(F)(F)C(F)(F)C(F)(F)F [Perfluorooctanamide]	> 100 µM	> 100 µM	> 100 µM	> 100 µM	> 100 µM	> 100 µM	> 100 µM	> 100 µM	> 100 µM	> 100 µM	> 100 µM	> 100 µM	> 100 µM	> 100 µM	> 100 µM	> 100 µM			> 100 µM	> 100 µM
NC(=O)C(F)(F)C(F)(F)C(F)(F)F [Heptafluorobutyramide]	> 100 µM	> 100 µM	> 100 µM	> 100 µM	> 100 µM	> 100 µM	> 100 µM	> 100 µM	> 100 µM	> 100 µM	> 100 µM	> 100 µM	> 100 µM	> 100 µM	> 100 µM	> 100 µM		> 100 µM	> 100 µM	> 100 µM
